Like-named read-outs stand apart in the source and are kept apart here.
Assays:
type 1 5α-reductase = target: T1, type 1 5α-reductase (Homo sapiens, UniProt P18405); assay: 5α-reductase assay, type 1 (human scalp homogenate), inhibition studies; assay type: biochemical
T1 construct: Preparation of Human Prostatic and Scalp 5α-reductases; from tissue; host or cells: human scalp (crude nuclear pellet of the homogenate)
T1 sequence (P18405 1-259): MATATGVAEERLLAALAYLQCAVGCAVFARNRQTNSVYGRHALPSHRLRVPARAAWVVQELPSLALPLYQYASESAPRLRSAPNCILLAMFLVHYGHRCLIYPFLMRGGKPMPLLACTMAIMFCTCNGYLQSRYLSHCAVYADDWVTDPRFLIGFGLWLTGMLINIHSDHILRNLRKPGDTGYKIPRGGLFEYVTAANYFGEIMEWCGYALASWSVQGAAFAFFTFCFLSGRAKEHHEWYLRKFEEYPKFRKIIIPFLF
Experimental: (§1) Samples of human tissue were pulverized using a freezer mill and homogenized in 40 mM potassium phosphate, pH 6.5, 5 mM magnesium sulfate, 25 mM potassium chloride, 1 mM phenylmethyl-sulfonyl fluoride, 1 mM dithiothreitol (DTT) containing 0.25 M sucrose using a Potter-Elvehjem homogenizer. A crude nuclear pellet was prepared by centrifugation of the homogenate at 1,500× G for 15 min. The crude nuclear pellet was washed two times and resuspended in two volumes of buffer. Glycerol was added to the resuspended pellet to a final concentration of 20%. The enzyme suspension was frozen in aliquots at −80° C.
(§2) The reaction mixture for the type 1 5α-reductase contained 40 mM potassium phosphate, pH 6.5, […] [7-^3H]-testosterone, 1 mM dithiothreitol and 500 μM NADPH in a final volume of 100 μL. The reaction mixture for the type 2 5α-reductase contained 40 mM sodium citrate, pH 5.5 0.3 mM [7-^3H]-testosterone, 1 mM dithiothreitol and 500 μM NADPH in a final volume of 100 μL. Typically, the assay was initiated by the addition of 50-100 μg prostatic homogenate or 75-200 μg scalp homogenate and incubated at 37° C. After 10-50 min. the reaction was quenched by extraction with 250 μL of a mixture of 70% cyclohexane: 30% ethyl acetate containing 10 μg each DHT and T. The aqueous and organic layers were separated by centrifugation at 14,000 rpm in an Eppendorf microfuge. The organic layer was subjected to normal phase HPLC (10 cm Whatman partisil 5 silica column established in 1 ml/min 70% cyclohexane: 30% ethyl acetate; retention times: DHT, 6.8-7.2 min.; androstanediol, 7.6-8.0 min.; T, 9.1-9.7 min.). […] The conversion of T to DHT was monitored using the radioactivity flow detector by mixing the HPLC effluent with one volume of Flo Scint 1 (Radiomatic).
(§3) Compounds were dissolved in 100% ethanol. The compound to be tested was pre-incubated with the enzyme (either 5α-reductase type 1 or 2) prior to initiation by addition of substrate testosterone. […] Representative compounds of this invention were tested in the above described assay for 5α-reductase type 1 and type 2 inhibition.

type 2 5α-reductase = target: T2, type 2 5α-reductase (Homo sapiens, UniProt P31213); assay: 5α-reductase assay, type 2 (human prostatic homogenate), inhibition studies; assay type: biochemical
T2 construct: Preparation of Human Prostatic and Scalp 5α-reductases; from tissue; host or cells: human prostate (crude nuclear pellet of the homogenate)
T2 sequence (P31213 1-254): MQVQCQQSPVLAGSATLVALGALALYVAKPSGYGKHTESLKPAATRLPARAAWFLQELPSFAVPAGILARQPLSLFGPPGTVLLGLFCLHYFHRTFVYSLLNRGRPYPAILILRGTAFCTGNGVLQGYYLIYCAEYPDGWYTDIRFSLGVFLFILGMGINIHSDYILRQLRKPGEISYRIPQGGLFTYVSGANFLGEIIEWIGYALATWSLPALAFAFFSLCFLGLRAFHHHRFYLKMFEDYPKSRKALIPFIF
Experimental: as §1, §2, §3

human androgen receptor = target: T3, human androgen receptor (Homo sapiens, UniProt P10275); assay: Human androgen receptor activity assay (anti-androgen activity, hAR); assay type: binding
T3 sequence (P10275 1-920): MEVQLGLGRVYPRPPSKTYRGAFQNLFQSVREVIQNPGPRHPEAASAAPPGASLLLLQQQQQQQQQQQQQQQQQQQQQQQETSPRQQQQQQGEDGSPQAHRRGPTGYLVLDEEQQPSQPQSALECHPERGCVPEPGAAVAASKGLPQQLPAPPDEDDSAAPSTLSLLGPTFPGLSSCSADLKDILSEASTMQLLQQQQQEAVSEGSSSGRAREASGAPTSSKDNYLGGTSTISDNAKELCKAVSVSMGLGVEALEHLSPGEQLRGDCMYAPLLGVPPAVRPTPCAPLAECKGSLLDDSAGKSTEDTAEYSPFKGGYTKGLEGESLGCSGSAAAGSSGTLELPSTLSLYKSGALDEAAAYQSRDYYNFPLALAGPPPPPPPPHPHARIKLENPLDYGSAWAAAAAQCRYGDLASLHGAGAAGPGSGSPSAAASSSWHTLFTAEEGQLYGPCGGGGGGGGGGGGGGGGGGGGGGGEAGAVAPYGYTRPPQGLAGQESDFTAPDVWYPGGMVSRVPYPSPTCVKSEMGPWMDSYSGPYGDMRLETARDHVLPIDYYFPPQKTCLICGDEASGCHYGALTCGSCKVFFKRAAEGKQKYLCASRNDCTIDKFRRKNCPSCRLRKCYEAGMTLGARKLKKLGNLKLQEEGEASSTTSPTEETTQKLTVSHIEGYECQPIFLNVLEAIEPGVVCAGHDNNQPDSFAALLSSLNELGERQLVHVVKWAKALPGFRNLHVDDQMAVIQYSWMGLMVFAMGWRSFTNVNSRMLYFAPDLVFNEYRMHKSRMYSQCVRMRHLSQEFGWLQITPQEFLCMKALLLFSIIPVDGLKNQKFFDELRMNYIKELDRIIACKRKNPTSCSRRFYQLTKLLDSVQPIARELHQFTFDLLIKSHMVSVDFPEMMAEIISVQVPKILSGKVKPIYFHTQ

[1] = human, conversion of testosterone to DHT, pH 6.5, read-out: IC50 Type 1 5aR
[2] = human, conversion of testosterone to DHT, pH 5.5, read-out: IC50 Type 2 5aR
[3] = human, anti-androgen activity, read-out: IC50 hAR

Structure (SMILES) | IC50 (type 1 5α-reductase; [1]) [nM] | IC50 (type 2 5α-reductase; [2]) [nM] | IC50 (human androgen receptor; [3]) [nM] | IC50 (type 1 5α-reductase) [nM] | IC50 (type 2 5α-reductase) [nM] | IC50 (human androgen receptor) [nM]
CN(C(=O)[C@H]1CC[C@H]2[C@@H]3CC[C@H]4N(C)C(=O)C=C[C@]4(C)[C@H]3CC[C@]12C)C(c1ccccc1)c1ccccc1 [Example 11, N-(diphenylmethyl)-N-(methyl)-4-methyl-3-oxo4-aza-5α-androst-1-ene-17-β-carboxamide] | 3 | 0.3 | 850 |  |  | 
CN1C(=O)C=C[C@]2(C)[C@H]3CC[C@]4(C)[C@@H](C(=O)Nc5ccccc5Cl)CC[C@H]4[C@@H]3CC[C@@H]12 [Example 6, N-(2-chlorophenyl)-3-oxo-4-aza-4-methyl-5α-androst-1-ene-17β-carboxamide] |  |  |  | 6 | 10 | 8
CN1C(=O)C=C[C@]2(C)[C@H]3CC[C@]4(C)[C@@H](C(=O)Nc5cc(C(F)(F)F)ccc5C(F)(F)F)CC[C@H]4[C@@H]3CC[C@@H]12 [Example 7, N-(2,5-bistrifluoromethyl-phenyl)-3-oxo-4-aza-4-methyl-5α-androst-1-ene-17β-carboxamide] |  |  |  | 4 | 20 | 20
CN1C(=O)C=C[C@]2(C)[C@H]3CC[C@]4(C)[C@@H](C(=O)Nc5ccccc5F)CC[C@H]4[C@@H]3CC[C@@H]12 [Example 3, N-(2-fluorophenyl)-3-oxo-4-aza-4-methyl-5α-androst-1-ene-17β-carboxamide] |  |  |  | 20 | 60 | 9
CN1C(=O)C=C[C@]2(C)[C@H]3CC[C@]4(C)[C@@H](C(=O)Nc5ccc(Cl)cc5)CC[C@H]4[C@@H]3CC[C@@H]12 [Example 1, N-(4-chlorophenyl)-3-oxo-4-methyl-4-aza-5α-androst-1-ene-17β-carboxamide] |  |  | 10 | 40 | 100 | 
CN1C(=O)C=C[C@]2(C)[C@H]3CC[C@]4(C)[C@@H](C(=O)NC(c5ccccc5)c5ccccc5)CC[C@H]4[C@@H]3CC[C@@H]12 [Example 10, N-(diphenylmethyl)-4-methyl-3-oxo-4-aza-5α-androst-1-ene-17-β-carboxamide] | 20 | 2 | 40 |  |  | 
COc1ccccc1NC(=O)[C@H]1CC[C@H]2[C@@H]3CC[C@H]4N(C)C(=O)C=C[C@]4(C)[C@H]3CC[C@]12C [Example 2, N-(2-methoxyphenyl)-3-oxo-4-aza-4-methyl-5α-androst-1-ene-17β-carboxamide] |  |  |  | 20 | 100 | 40
CN1C(=O)C=C[C@]2(C)[C@H]3CC[C@]4(C)[C@@H](C(=O)Nc5ccccc5C(F)(F)F)CC[C@H]4[C@@H]3CC[C@@H]12 [Example 4, N-(2-trifluoromethyl-phenyl)-3-oxo-4-aza-4-methyl-5α-androst-1-ene-17β-carboxamide] |  |  |  | 2 | 7 | 30
Cc1ccccc1NC(=O)[C@H]1CC[C@H]2[C@@H]3CC[C@H]4N(C)C(=O)C=C[C@]4(C)[C@H]3CC[C@]12C [Example 5, N-(2-methylphenyl)-3-oxo-4-aza-4-methyl-5α-androst-1-ene-17β-carboxamide] |  |  |  | 20 | 20 | 30
